SMILES strings stand for the structures.

The target of the assay is T1, human ferroportin (Homo sapiens, UniProt Q9NP59).
T1 construct: expressed in transfected cells
T1 sequence (Q9NP59 1-571): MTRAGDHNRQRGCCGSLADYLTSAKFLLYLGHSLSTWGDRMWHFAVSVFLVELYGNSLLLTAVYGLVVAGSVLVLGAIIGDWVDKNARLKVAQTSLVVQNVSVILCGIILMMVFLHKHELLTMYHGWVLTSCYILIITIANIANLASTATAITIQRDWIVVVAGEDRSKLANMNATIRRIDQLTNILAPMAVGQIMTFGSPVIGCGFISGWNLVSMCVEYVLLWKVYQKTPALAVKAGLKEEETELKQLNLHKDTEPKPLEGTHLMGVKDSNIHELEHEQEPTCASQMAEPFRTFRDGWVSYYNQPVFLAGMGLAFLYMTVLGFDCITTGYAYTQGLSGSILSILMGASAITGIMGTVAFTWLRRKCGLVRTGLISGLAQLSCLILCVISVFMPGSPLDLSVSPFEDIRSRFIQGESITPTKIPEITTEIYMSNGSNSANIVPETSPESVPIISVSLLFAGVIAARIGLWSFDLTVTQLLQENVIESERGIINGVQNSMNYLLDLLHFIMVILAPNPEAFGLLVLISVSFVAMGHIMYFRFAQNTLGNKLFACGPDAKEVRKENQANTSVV
As to the kind of experiment: ferroportin internalization assay (inhibition of hepcidin-induced internalization of Fpn). The class given is cell-based. Conditions: MDCK-FPN-HaloTag cells, 100 nM hepcidin, overnight incubation; concentration range from 0.04 to 40 μM. How it is done:
The hepcidin-antagonistic action of the sulfonaminoquinoline compounds of the present invention was determined by means of the “ferroportin internalization assay” described in the following.
Organic compounds of low molecular weight which counteract the biological actions of hepcidin on its receptor, the iron exporter ferroportin (Fpn), were identified on the basis of their ability to inhibit hepcidin-induced internalization of Fpn in living cells. For this purpose, a stable cell line (Madin-Darby canine kidney, MDCK) was produced which constitutively expresses human ferroportin fused recombinantly at its C terminus with a fluorescent reporter protein (HaloTag®, Promega Corp.). The internalization of Fpn was monitored by labelling these cells with fluorescent ligands (HaloTag®-TMR, tetramethylrhodamine) which join covalently on to the HaloTag reporter gene fused with the Fpn. […] Optimized image analysis algorithms were used to ascertain the cell surface and to quantify the corresponding membrane fluorescence associated with the Fpn-HaloTag fusion protein. This assay allows a quantitative image-based analysis in order to quickly evaluate compounds which can block hepcidin-induced internalization of Fpn. This assay is a direct in vitro pendant of the in vivo action mechanism proposed for medicament candidates and is therefore suitable as an initial assay with a high throughput for identifying compounds which counteract the action of hepcidin on its receptor ferroportin.
• 7,500 cells per well (MDCK-FPN-HaloTag) were transinoculated in 50 μl of DMEM medium (Dulbeccos Modified Eagle Medium with 10% foetal bovine serum (FBS), which contained 1% penicillin, 1% streptomycin and 450 μg/ml of G-418) in microtitre plates with 384 wells (384 Cell carrier plates, Perkin Elmer, cat. no. 6007430), followed by incubation overnight at 37° C./5% CO2. • The volume of the medium was reduced to 10 μl, and 10 μl of 5 μM HaloTag-TMR ligands (Promega, cat. no. G 8251) were added in DMEM medium in order to stain the Fpn-HaloTag fusion protein. • 15 min incubation at 37° C./5% CO2 • The HaloTag-TMR ligand was removed and the cells were washed with fresh DMEM medium and the volume was reduced to 20 μl of DMEM medium. • 3 μl per well of a solution of the test compound (dissolved DMSO) were added ([…]). • 7 μl of […] hepcidin (Peptides International, cat. no. PLP-4392-s, 100 μM stock solution diluted in water in DMEM medium) were added per well up to a final hepcidin concentration of 100 nM. • The cells were incubated overnight at 37° C./5% CO2. • The cells were fixed by adding paraformaldehyde (PFA, Electron Microscopy Sciences, cat. no. 15710-S) directly to the cells up to a final concentration of 4%, followed by incubation at room temperature for 15-20 minutes. • The PFA solution was removed and the cells were washed with PBS (phosphate-buffered saline solution), in each case 30 μl remaining in the plate. • 20 μl of Draq5 (Biostatus, cat. no. DR 51000) were added up to a final concentration of 2.5 μM in order to stain the cell nuclei, and the plates were sealed with a foil plate seal. • The plates were analysed with the Opera Plate Imager (Opera Confocal Plate Imager, Perkin Elmer) with 7 images per well; 440 ms exposure time per image, […] focal point height.
Turning to `COc1cc(NS(=O)(=O)c2ccc(Cl)cc2F)c2ncccc2c1` [Example 57, 4-Chloro-2-fluoro-N-(6-methoxy-quinolin-8-yl)-benzenesulfonamide], the IC50 (commonly the concentration that gives 50% inhibition) was 1750 nM.
As to `COc1cc(NS(=O)(=O)c2cccnc2)c2ncccc2c1` [Example 59, Pyridine-3-sulfonic acid (6-methoxy-quinolin-8-yl)-amide], half-maximal inhibition (IC50) required 2800 nM.
The figure for `O=S(=O)(Nc1ccc(Cl)c2cccnc12)c1cccnc1` [Example 60, Pyridine-3-sulfonic acid (5-chloro-quinolin-8-yl)-amide] is 1780 nM; for `CC(C)C(=O)Nc1cc(C(F)(F)F)ccc1S(=O)(=O)Nc1cccc2cccnc12` [Example 61, N-[2-(Quinolin-8-ylsulfamoyl)-5-trifluoromethyl-phenyl]-isobutyramide] it is 10000 nM; for `O=S(=O)(Nc1cccc2cccnc12)c1cccc(Cl)c1F` [Example 62, 3-Chloro-2-fluoro-N-quinolin-8-yl-benzenesulfonamide] it is 1710 nM.
Consider `O=S(=O)(Nc1cccc2cccnc12)c1c(F)cccc1F` [Example 64, 2,6-Difluoro-N-quinolin-8-yl-benzenesulfonamide], for which it took 1140 nM to reach half-maximal inhibition (IC50).
The compound `COc1cc(NS(=O)(=O)c2ccc(C(F)(F)F)cc2N)c2ncccc2c1` [Example 65, 2-Amino-N-(6-methoxy-quinolin-8-yl)-4-trifluoromethyl-benzenesulfonamide] gave an IC50 of 1000 nM.
`O=S(=O)(Nc1cccc2cccnc12)c1cccc(Cl)c1Cl` [Example 67, 2,3-Dichloro-N-quinolin-8-yl-benzenesulfonamide]: 7090 nM corresponded to half-maximal inhibition (IC50).
As to `Cc1c(Cl)cccc1S(=O)(=O)Nc1cccc2cccnc12` [Example 68, 3-Chloro-2-methyl-N-quinolin-8-yl-benzenesulfonamide], the IC50 was 4000 nM.
For the compound `O=S(=O)(Nc1cccc2cccnc12)Oc1ccccc1` [Example 70, Quinolin-8-yl-sulfamic acid phenyl ester], 3250 nM corresponded to half-maximal inhibition (IC50).
The compound `Cc1cnc2c(NS(=O)(=O)c3ccc(Cl)cc3F)cccc2c1` [Example 71, 4-Chloro-2-fluoro-N-(3-methyl-quinolin-8-yl)-benzenesulfonamide] registered an IC50 of 1300 nM.
Next, `Cc1cnc2c(NS(=O)(=O)c3cccnc3)cccc2c1` [Example 72, Pyridine-3-sulfonic acid (3-methyl-quinolin-8-yl)-amide]: 1390 nM; `Cc1cnc2c(NS(=O)(=O)c3ccc(C(F)(F)F)cc3N)cccc2c1` [Example 73, 2-Amino-N-(3-methyl-quinolin-8-yl)-4-trifluoromethyl-benzenesulfonamide]: 3000 nM; `O=S1(=O)Nc2c(ccc3cccnc23)-c2cc(F)ccc21` [Example 74, 9-Fluoro-5H-6-thia-4,5-diaza-chrysene 6,6-dioxide]: 1560 nM.
Compound `O=S(=O)(Nc1cc(F)cc2cccnc12)c1ccccc1` [Example 75, N-(6-Fluoro-quinolin-8-yl)-benzenesulfonamide] had an IC50 of 780 nM.
As for `Cc1cc(NS(=O)(=O)c2ccccc2)c2ncccc2c1` [Example 77, N-(6-Methyl-quinolin-8-yl)-benzenesulfonamide], half-maximal inhibition (IC50) required 2180 nM.
In the case of `O=S1(=O)Nc2c(ccc3cccnc23)-c2cc(C(F)(F)F)ccc21` [Example 78, 9-Trifluoromethyl-5H-6-thia-4,5-diaza-chrysene 6,6-dioxide], the IC50 came to 130 nM.
In turn, `Cc1ccc(S(=O)(=O)Nc2ccc(Cl)c3cccnc23)c(N)c1` [Example 79, 2-Amino-N-(5-chloro-quinolin-8-yl)-4-methyl-benzenesulfonamide] displayed an IC50 of 1220 nM.
`COc1cc(NS(=O)(=O)c2ccc(C)cc2N)c2ncccc2c1` [Example 80, 2-Amino-N-(6-methoxy-quinolin-8-yl)-4-methyl-benzenesulfonamide]: the IC50 is 585 nM.
`O=S(=O)(Nc1cc(F)c(Cl)c2cccnc12)c1ccccc1` [Example 82, N-(5-Chloro-6-fluoro-quinolin-8-yl)-benzenesulfonamide]: it took 1500 nM to reach half-maximal inhibition (IC50).
The compound `Cc1c(F)cccc1S(=O)(=O)Nc1cccc2cccnc12` [Example 83, 3-Fluoro-2-methyl-N-quinolin-8-yl-benzenesulfonamide] came in with an IC50 of 1500 nM.
In turn, `O=S(=O)(Nc1cccc2cccnc12)c1ccccn1` [Example 85, Pyridine-2-sulfonic acid quinolin-8-ylamide] displayed an IC50 of 1890 nM.
As for `O=S(=O)(Nc1cccc2cccnc12)c1cnc2ccccc2c1` [Example 88, Quinoline-3-sulfonic acid quinolin-8-ylamide], the IC50 was determined as 2060 nM.
As for `O=S(=O)(Nc1cccc2cccnc12)c1ccc(C(F)(F)F)nc1` [Example 89, 6-Trifluoromethyl-pyridine-3-sulfonic acid quinolin-8-ylamide], half-maximal inhibition (IC50) required 3690 nM.
The compound `Cc1ccc(NS(=O)(=O)c2ccccc2)c2ncccc12` [Example 90, N-(5-Methyl-quinolin-8-yl)-benzenesulfonamide] came in with an IC50 of 1100 nM.
`O=S(=O)(Nc1ccc(C(F)(F)F)c2cccnc12)c1ccccc1` [Example 91, N-(5-Trifluoromethyl-quinolin-8-yl)-benzenesulfonamide] showed an IC50 of 1050 nM.
Regarding `O=S(=O)(Nc1cc(OC(F)(F)F)cc2cccnc12)c1ccccc1` [Example 92, N-(6-Trifluoromethoxy-quinolin-8-yl)-benzenesulfonamide], the IC50 was found to be 9000 nM.
As to `O=S(=O)(Nc1cc(F)cc2cccnc12)c1c(F)cccc1F` [Example 94, 2,6-Difluoro-N-(6-fluoro-quinolin-8-yl)-benzenesulfonamide], the IC50 came to 1000 nM.
The compound `O=S(=O)(Nc1cc(F)cc2cccnc12)c1ccc(Cl)cc1F` [Example 95, 4-Chloro-2-fluoro-N-(6-fluoro-quinolin-8-yl)-benzenesulfonamide] showed a half-inhibitory concentration (IC50) of 690 nM.
In turn, `O=S(=O)(Nc1cc(F)cc2cccnc12)c1cccnc1` [Example 96, Pyridine-3-sulfonic acid (6-fluoro-quinolin-8-yl)-amide] registered an IC50 of 5870 nM.
`O=S(=O)(Nc1cc(F)c(F)c2cccnc12)c1ccccc1` [Example 97, N-(5,6-Difluoro-quinolin-8-yl)-benzenesulfonamide] registered an IC50 of 8000 nM.
`O=S(=O)(Nc1ccc(F)c2cccnc12)c1ccccc1` [Example 98, N-(5-Fluoro-quinolin-8-yl)-benzenesulfonamide] displayed an IC50 of 988 nM.
Regarding `Cc1cc2c(cc1C)S(=O)(=O)Nc1c-2ccc2cccnc12` [Example 104, 8,9-Dimethyl-5H-6-thia-4,5-diaza-chrysene 6,6-dioxide], the IC50 came out at 4020 nM.
In the case of `COc1ccc2c(c1)-c1ccc3cccnc3c1NS2(=O)=O` [Example 105, 9-Methoxy-5H-6-thia-4,5-diaza-chrysene 6,6-dioxide], the IC50 was found to be 1580 nM.
In the case of `Cc1cc2c(c3ncccc13)NS(=O)(=O)c1ccccc1-2` [Example 107, 12-Methyl-5H-6-thia-4,5-diaza-chrysene 6,6-dioxide], the IC50 was 599 nM.
`COc1cc2c(c3ncccc13)NS(=O)(=O)c1ccccc1-2` [Example 108, 12-Methoxy-5H-6-thia-4,5-diaza-chrysene 6,6-dioxide] came in with an IC50 of 990 nM.

The record behind these values is patent US9102688B2, “Sulfonaminoquinoline hepcidin antagonists” (Vifor (International) AG, priority 2011, dated 2015).
